From article PMC6994103 (PLoS Neglected Tropical Diseases, 2020)

Columns and labels:
[1] = test system: VERO cells; assay: Toxicity assay in VERO cells (gentian violet staining); assay type: cell-based, African green monkey; conditions: IC50 in VERO cells / IC50 in trypomastigotes (Y strain)
Protocol: VERO cells (African green monkey Kidney, ATCC CCL-81) were cultured in MEM medium supplemented with 10% heat inactivated FCS, 0.15% (w/v) NaHCO3, 100 U/mL penicillin and 100 U/mL streptomycin at 37°C in 5% CO2.
The toxicity of the compounds was determined in VERO cells by the gentian violet staining assay. Briefly, the cells (1 x10^4 cells/well) were incubated in 96-well plates with the indicated compound or dimethyl sulfoxide (DMSO) as negative control and maintained at 37° C for 24 h. Then the cells were fixed for 15 min, and stained with 0.5% gentian violet. The absorbance was measured at 570 nm. The selectivity index (SI) was calculated for each CV analogue as the ratio between the IC50 obtained in mammalian cells and the IC50 in trypomastigotes. For the combined treatment, the results were presented as percentage of untreated cells.

[2] = test system: proline transporter TcAAAP069; assay: Proline transport assay in wild type (TcWT) epimastigotes; assay type: cell-based, Trypanosoma cruzi; conditions: for proline transport inhibition at 25 μM and 100 μM: TcWT epimastigotes, preliminary
Protocol: (§1) Aliquots of epimastigote cultures (10^7 parasites) were centrifuged at 8,000 xg for 30 s, and washed once with PBS. […] Following incubation at 28°C, reaction was stopped by adding 1 mL of ice-cold PBS. Cells were centrifuged as indicated above, and washed twice with ice-cold PBS. Cell pellets were resuspended in 0.2 mL of water and counted for radioactivity in UltimaGold XR liquid scintillation cocktail (Packard Instrument Co., Meridien CT, USA). Cell viability was assessed by direct microscopic examination and viability assays by using “Cell Titer 96 Aqueous One Solution Cell Proliferation Assay (MTS)” (Promega, Madison, WI, USA) according to the manufacturer instructions. […] Non-specific uptake and carry over were assayed without incubation (T0), or incubated at 4°C. […] As a control, regular PBS buffer was used.

[3] = test system: T. cruzi Tc069 epimastigotes Y strain; assay: Trypanocidal activity in TcAAAP069 overexpressing (Tc069) epimastigotes; assay type: cell-based, Trypanosoma cruzi; conditions: Tc069 vs TcWT
Protocol: (§2) Epimastigotes of T. cruzi were cultured as described above, in 24-wells plate at a start density of 0.5 x10^7 cells/mL in BHT medium. Parasites´ growth was evaluated at different concentrations of BZL, CV and CV structural analogues, and parasite proliferation was determined after 48 h. Trypanocidal activity in trypomastigotes and amastigotes was performed using 1 x10^6 cells/mL in 96-well plates and incubating at 37°C for 24 h in the presence of the corresponding drug. Growth was determined by counting in a Neubauer chamber and viability assays by using “Cell Titer 96 Aqueous One Solution Cell Proliferation Assay (MTS)” (Promega, Madison, WI, USA) according to the manufacturer’s instructions. Amastigotes were fixed with methanol, stained and mounted with Vectashield with DAPI (Vector Laboratories, Burlingame, CA, USA), and then the non-lysed cells were counted by using fluorescence microscopy.

[4] = test system: T. cruzi epimastigotes CL Brener strain; assay: Trypanocidal activity in epimastigotes, CL Brener strain; assay type: cell-based, Trypanosoma cruzi; conditions: CL Brener vs Y
Protocol: (§3) VERO cells (5 x10^4 per well) were infected with trypomastigotes (2.5 ×10^5 per well) for 4 h. After this period, the infected cells were washed twice with phosphate-buffered saline (PBS), the MEM medium was replaced, and the cells were kept in culture at 37°C, 5% CO2. In order to obtain intracellular amastigotes, the cells were lysed 4 days after infection using a cell scraper, collected, washed twice with PBS (or MEM) and counted using a hemocytometer. Trypomastigotes were obtained from infected VERO cells as previously described.
Epimastigotes of T. cruzi were cultured as described above, in 24-wells plate at a start density of 0.5 x10^7 cells/mL in BHT medium. Parasites´ growth was evaluated at different concentrations of BZL, CV and CV structural analogues, and parasite proliferation was determined after 48 h. […] Growth was determined by counting in a Neubauer chamber and viability assays by using “Cell Titer 96 Aqueous One Solution Cell Proliferation Assay (MTS)” (Promega, Madison, WI, USA) according to the manufacturer’s instructions. Amastigotes were fixed with methanol, stained and mounted with Vectashield with DAPI (Vector Laboratories, Burlingame, CA, USA), and then the non-lysed cells were counted by using fluorescence microscopy.

[5] = test system: proline transporter TcAAAP069; assay: Proline transport assay in TcAAAP069 overexpressing (Tc069) epimastigotes; assay type: cell-based, Trypanosoma cruzi; conditions: Tc069 vs TcWT
Protocol: as §1

[6] = test system: T. cruzi epimastigotes Dm28c strain; assay: Trypanocidal activity in epimastigotes, Dm28c strain; assay type: cell-based, Trypanosoma cruzi; conditions: Dm28c vs Y
Protocol: as §3, §2

With `CC(C)/N=c1\cc2n(-c3ccc(Cl)cc3)c3ccccc3nc-2cc1Nc1ccc(Cl)cc1` [Clofazimine] the “Selectivity Index” value [1] was 36.1.

In the case of `CN(C)c1ccc(C(=C2C=CC(=[N+](C)C)C=C2)c2ccc(N(C)C)cc2)cc1` [Crystal Violet], the “effect on pH dependency of proline transport” value ([2]; CV 10 μM, citrate buffer pH 5.0-6.5) is reported as “did not alter the pH dependency”, the “proline transport inhibition in the absence of Na+ or K+ cations” value ([2]; CV 10 μM, modified PBS vs regular PBS) is reported as “No differences were observed” and the “mechanism of inhibition of proline transport” value ([2]; TcWT, listed as CV) is reported as “reversible competitive mechanism of inhibition”. For the same compound, the “fold reduction of trypanocidal IC50 in Tc069 vs wild type” value [3] was 47 fold, the “fold lower IC50 in CL Brener than in Y epimastigotes” value [4] was 4.0 fold and the “fold increase of proline transport IC50 in Tc069 vs control parasites” value [5] was 2.5 fold. For the same compound, the “fold lower IC50 in Dm28c than in Y epimastigotes” value [6] was 31.8 fold.

`Nc1ccc(S(=O)(=O)c2ccc(N)cc2)cc1` [Dapsone] was tested, and the “proline transport inhibition at 25 μM and 100 μM” value [2] was “did not inhibit the proline transport in any concentration assayed”.

With `Cc1cc2c(s1)Nc1ccccc1N=C2N1CCN(C)CC1` [Olanzapine] the “proline transport inhibition at 25 μM and 100 μM” value [2] was “only inhibited proline transport at 100 μM” and the “concentration producing death of parasites in the lapse time of the transport assay” value ([2]; epimastigotes) was “over 300 μM”.
